System: DMS 114 tumor spheroids, viability % test/control
Test: Anticancer human tumor DMS 114 cell line growth inhibition;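 further: spheroids exposed to compounds for 7 days before read-out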;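 on viability, T/C: luminescence used as a proxy for viable cells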
Conditions: spheroids with HUVEC and MSC; for IC50: curve of first compound; for viability, T/C: stronger effect = lower value
Method in brief: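 Single agents and combinations were tested on spheroids built from tumor cells plus HUVEC and hMSC, at half-log dilutions starting at or near clinical Cmax, else 10 microM; final DMSO 0.25% (v/v).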

[1] = second compound 1 µM, first compound 0.0316 µM
[2] = second compound 1 µM, first compound 0.1 µM
[3] = second compound 1 µM, first compound 0.316 µM
[4] = second compound 1 µM, first compound 1 µM
[5] = second compound 1 µM, first compound 3.16 µM
[6] = second compound 1 µM, first compound 10 µM
[7] = second compound 3.16 µM, first compound 0.0316 µM
[8] = second compound 3.16 µM, first compound 0.1 µM
[9] = second compound 3.16 µM, first compound 0.316 µM
[10] = second compound 3.16 µM, first compound 1 µM
[11] = second compound 3.16 µM, first compound 3.16 µM
[12] = second compound 3.16 µM, first compound 10 µM
[13] = second compound 10 µM, first compound 0.0316 µM
[14] = second compound 10 µM, first compound 0.1 µM
[15] = second compound 10 µM, first compound 0.316 µM
[16] = second compound 10 µM, first compound 1 µM
[17] = second compound 10 µM, first compound 3.16 µM
[18] = second compound 10 µM, first compound 10 µM
[19] = second compound 31.6 µM, first compound 0.0316 µM
[20] = second compound 31.6 µM, first compound 0.1 µM
[21] = second compound 31.6 µM, first compound 0.316 µM
[22] = second compound 31.6 µM, first compound 1 µM
[23] = second compound 31.6 µM, first compound 3.16 µM
[24] = second compound 31.6 µM, first compound 10 µM
[25] = second compound 100 µM, first compound 0.0316 µM
[26] = second compound 100 µM, first compound 0.1 µM
[27] = second compound 100 µM, first compound 0.316 µM
[28] = second compound 100 µM, first compound 1 µM
[29] = second compound 100 µM, first compound 3.16 µM
[30] = second compound 100 µM, first compound 10 µM

| SMILES | IC50 (second compound 1 µM) [µM] | IC50 (second compound 3.16 µM) [µM] | IC50 (second compound 10 µM) [µM] | IC50 (second compound 31.6 µM) [µM] | IC50 (second compound 100 µM) [µM] | viability, T/C [1] [%] | viability, T/C [2] [%] | viability, T/C [3] [%] | viability, T/C [4] [%] | viability, T/C [5] [%] | viability, T/C [6] [%] | viability, T/C [7] [%] | viability, T/C [8] [%] | viability, T/C [9] [%] | viability, T/C [10] [%] | viability, T/C [11] [%] | viability, T/C [12] [%] | viability, T/C [13] [%] | viability, T/C [14] [%] | viability, T/C [15] [%] | other results |
| --- | --- | --- | --- | --- | --- | --- | --- | --- | --- | --- | --- | --- | --- | --- | --- | --- | --- | --- | --- | --- | --- |
| COc1cc(C)[nH]c(=O)c1CN1CCc2c(Cl)cc(C(OC)C3COC3)c(Cl)c2C1=O (stereo not given) + Cn1nnc2c(C(N)=O)ncn2c1=O | > 10 | > 10 | > 10 | > 10 | > 10 | 103 | 93.3 | 82.7 | 78.4 | 73 | 71 | 109 | 97.1 | 91 | 82.3 | 76.5 | 71.7 | 115 | 99.5 | 93.1 | viability, T/C [16]: 82%; viability, T/C [17]: 80.5%; viability, T/C [18]: 70.1%; viability, T/C [19]: 102%; viability, T/C [20]: 103%; viability, T/C [21]: 86.5%; viability, T/C [22]: 84.2%; viability, T/C [23]: 70.1%; viability, T/C [24]: 67.5%; viability, T/C [25]: 90.7%; viability, T/C [26]: 95.6%; viability, T/C [27]: 73.3%; viability, T/C [28]: 64.3%; viability, T/C [29]: 61.2%; viability, T/C [30]: 57.1% |
| Cc1cc(C)c(CNC(=O)c2cc(-c3ccc(CN4CCOCC4)cc3)cc3c2cnn3C2CCCC2)c(=O)[nH]1 + Cn1nnc2c(C(N)=O)ncn2c1=O | > 10 | > 10 | > 10 | > 10 | > 10 | 100 | 103 | 104 | 110 | 110 | 64.3 | 110 | 108 | 108 | 114 | 120 | 69.3 | 110 | 106 | 111 | viability, T/C [16]: 115%; viability, T/C [17]: 120%; viability, T/C [18]: 65.9%; viability, T/C [19]: 113%; viability, T/C [20]: 107%; viability, T/C [21]: 109%; viability, T/C [22]: 111%; viability, T/C [23]: 103%; viability, T/C [24]: 65.1%; viability, T/C [25]: 103%; viability, T/C [26]: 103%; viability, T/C [27]: 98.8%; viability, T/C [28]: 90.1%; viability, T/C [29]: 80.4%; viability, T/C [30]: 51.6% |
| [2H]c1nc(C)nc([2H])c1-c1cc(NC[C@@H](C)c2cccc3c(C(=O)NC)ccnc23)ncn1 + Cn1nnc2c(C(N)=O)ncn2c1=O | > 10 | > 10 | > 10 | > 10 | > 10 | 94.5 | 104 | 98.4 | 99.5 | 97.3 | 98.5 | 108 | 100 | 99.7 | 102 | 99.9 | 101 | 110 | 109 | 98.2 | viability, T/C [16]: 110%; viability, T/C [17]: 95.5%; viability, T/C [18]: 94.8%; viability, T/C [19]: 104%; viability, T/C [20]: 99%; viability, T/C [21]: 113%; viability, T/C [22]: 107%; viability, T/C [23]: 110%; viability, T/C [24]: 95.2%; viability, T/C [25]: 93.3%; viability, T/C [26]: 105%; viability, T/C [27]: 98.3%; viability, T/C [28]: 94.7%; viability, T/C [29]: 84.7%; viability, T/C [30]: 87.6% |
